The values below come from patent US20250066468A1, “LIPOSOME ENCAPSULATED AFFINITY DRUG” (L.E.A.F. HOLDINGS GROUP LLC, priority 2014, published 2025).

Usually solubility stands for the dissolved amount per volume that the medium holds.

For series [1] the following is noted: neutral pH; cited from earlier work.
Another series concerns CD34+ stem cells. As to the kind of experiment: Neutrophil differentiation of CD34+ stem cells, flow cytometry. The format is cell-based, human. Conditions: pemetrexed 2-50 μM; day 2; n=4 donors. The method, then:
Experiments were performed as follows: CD34+ stem cells were obtained from ATCC. CD34+ cells were thawed at 37° C. for 1 minute. While on ice, the cells were transferred to cold stem cell medium (“StemSpan SFEM”-Stem Cell Tech. cat. #9650), 10% heat […] fetal bovine serum (HI FBS.) Each vial contained approximated 5×10^5 cell/ml. The cells were placed in 96 well tissue culture plates 35,000 cell/well. The neutrophils GROWTH media contained 100 ng/ml of stem cell factor human (SCF-Sigma H8416, lot #MKB[…]), 20 ng/ml of granulocyte colony-stimulation factor, human (G-CSF-Sigma H5541, lot #SLB[…]), 10 ng/ml of IL3 recombinant human (Sigma SRP3090, lot #1008AFC13) in […] media as above. […] The cells shown in the circle on the plots are maturing neutrophils expressing Mac-1 and CD34.

Series [2] concerns phosphorylated p38 in SL0003 lung cancer cells. As to the kind of experiment: p38 phosphorylation (PhosFlow). Conditions: 30 minutes, pemetrexed at 10 μM and 50 μM. The format is cell-based. The procedure: A second measure of sample liposome entering the cell is intracellular activation pathways. Cells respond to ligands binding to their receptors by activating kinases, in this case p38. The activated kinases can be measured by flow cytometry. The cells are incubated with sample liposome for 30 minutes and then lysed with a mild detergent. The activated p38 kinase is detected with an antibody by flow cytometry. A shift under the red line gate indicates a higher level of phosphorylated p38 (See FIG. 18A and 18BG). Cancer cells may have a higher basal level of activated kinases.
In addition, for FIG. 17, measuring p38 phosphorylation (PhosFlow) SL0003, normal colon cells, and normal breast cells were seeded at 10,000 cells/well. Cells were treated with: Fresh Pemetrexed ([…]), LEAF-001 (Liposome 070715 MPF; 5traut/50 Mab, 15traut/50Mab, 45traut/50Mab) (13.33× dilution), anti-folate receptor alpha (MABFRA H/L 1.01 mg/ml) (13.33× dilution) to determine the effect of the antibody in sample liposome, or no treatment. The cells were gently mixed and quickly placed in incubator. At each time point (30 minutes-4 hours), the plates were removed from the incubator and immediately fixed with formaldehyde for a final concentration of 2%. The plates were incubated for 5 minutes at room temperature. 25 μl of media was removed. […] The cells were read on the flow cytometer (in FL2).

The subject of series [3] is SL0003 (lung cancer) cells. As to the kind of experiment: Cell cycle by propidium iodide DNA staining, flow cytometry. The format is cell-based. Particulars: titrated concentrations, day 5. The procedure: SL0003 (lung cancer) cells were prepared as described in the Example describing MTS assays (Example 5).
For this assay, the cells were cultured for 4 or 5 days (shown is day 5.). More specifically, […] cells (lung adenocarcinoma) were seeded in 96 well plates and treated the next day with titrated concentrations of LEAF-001 or pemetrexed. At day 5, cells were lysed with FACS buffer, 0.2% triton X-100, 0.3% formaldehyde. The DNA was stained with Propidium Iodine for 30 minutes […] to evaluate cell cycle
The cells were washed and evaluated by flow cytometry (FL2). FIG. 22A depicts a schematic showing the cell cycle. By inhibiting the formation of precursor purine and pyrimidine nucleotides, pemetrexed prevents the formation of DNA and RNA, which are required for the growth and survival of both normal cells and cancer cells.
In general terms: Flow cytometry measures light scatter and fluorescence of single cells or particles in a stream.

For the compound `Nc1nc2[nH]cc(CCc3ccc(C(=O)N[C@@H](CCC(=O)O)C(=O)O)cc3)c2c(=O)[nH]1` [pemetrexed, Pemetrexed disodium heptahydrate], in series [1], the solubility was 100 mg/mL. Besides, the neutrophil differentiation result in the series on CD34+ stem cells is recorded as “neutrophil differentiation is inhibited”. Moreover, the “effect on p38 activation” value in series [2] is “reduces p38 activation”. Besides, the “cell cycle effect (accumulation in S phase)” value in series [3] was “induces cells to accumulate in S phase”.
